Measurements: US11702404B2, “GLP-1R modulating compounds” (priority 2019, dated 2023)

Columns and labels:
GLP-1R = GLP-1R (Homo sapiens, UniProt P43220); assay: GLP-1R activation: cAMP increase in CHO cells stably expressing GLP-1R; assay type: cell-based; settings: cAMP increase, CHO cells stably expressing GLP-1R, 10 point dose response, 30 minutes incubation; read-out: EC50
[1] = Microsomal stability, human liver microsomes (predicted hepatic clearance); settings: predicted from in vitro microsomal stability data

Sequence of GLP-1R (P43220 24-463): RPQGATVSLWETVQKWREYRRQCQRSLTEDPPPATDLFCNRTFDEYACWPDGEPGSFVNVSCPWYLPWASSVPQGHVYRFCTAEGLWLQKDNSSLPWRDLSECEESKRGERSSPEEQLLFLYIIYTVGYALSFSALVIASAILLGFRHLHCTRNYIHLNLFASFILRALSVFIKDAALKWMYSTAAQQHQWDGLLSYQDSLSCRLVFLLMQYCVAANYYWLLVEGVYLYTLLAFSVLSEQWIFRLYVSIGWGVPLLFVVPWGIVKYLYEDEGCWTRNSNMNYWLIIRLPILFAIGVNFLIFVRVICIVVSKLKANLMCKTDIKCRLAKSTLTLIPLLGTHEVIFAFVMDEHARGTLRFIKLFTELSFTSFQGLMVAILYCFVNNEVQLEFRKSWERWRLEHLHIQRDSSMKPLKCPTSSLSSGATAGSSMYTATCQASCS

EC50 (GLP-1R) [nM] | Predicted Hepatic Clearance (Pred. Cl.) [1] [mL/min/kg] | Structure (SMILES)
274 | <1.83 | COCCn1c(Cc2ccc(-c3ccc(C#N)c(OCc4ccc(C#N)cc4F)n3)cc2F)nc2ccc(C(=O)O)cc21 [Example 86, 2-(4-(5-cyano-6-((4-cyano-2-fluorobenzyl)oxy)pyridin-2-yl)-2-fluorobenzyl)-1-(2-methoxyethyl)-1H-benzo[d]imidazole-6-carboxylic acid]
5.66 | <1.83 | COCCn1c(Cc2ccc(-c3ccc(F)c(OCc4ccc(C#N)cc4F)n3)cc2F)nc2ccc(C(=O)O)cc21 [Example 87, 2-(4-(6-((4-cyano-2-fluorobenzyl)oxy)-5-fluoropyridin-2-yl)-2-fluorobenzyl)-1-(2-methoxyethyl)-1H-benzo[d]imidazole-6-carboxylic acid]
296 | 8.5 | COCCn1c(Cc2ccc(-c3csnc3OCc3ccc(C#N)cc3F)cc2F)nc2ccc(C(=O)O)cc21 [Example 88, 2-(4-(3-((4-cyano-2-fluorobenzyl)oxy)isothiazol-4-yl)-2-fluorobenzyl)-1-(2-methoxyethyl)-1H-benzo[d]imidazole-6-carboxylic acid]
1650 | 8.83 | COCCn1c(Cc2ccc(-n3ccc(OCc4ccccc4)n3)cc2F)nc2ccc(C(=O)O)cc21 [Example 89, 2-(4-(3-(benzyloxy)-1H-pyrazol-1-yl)-2-fluorobenzyl)-1-(2-methoxyethyl)-1H-benzo[d]imidazole-6-carboxylic acid]
72.4 | 10 | COCCn1c(Cc2ccc(-c3cc(C(F)(F)F)cc(OCc4ccc(C#N)cc4F)n3)cc2F)nc2ccc(C(=O)O)cc21 [Example 90, 2-(4-(6-((4-cyano-2-fluorobenzyl)oxy)-4-(trifluoromethyl)pyridin-2-yl)-2-fluorobenzyl)-1-(2-methoxyethyl)-1H-benzo[d]imidazole-6-carboxylic acid]
2630 | 5 | COCCn1c(Cc2ccc(-c3nc(OCc4ccc(C#N)cc4F)ccc3F)cc2F)nc2ccc(C(=O)O)cc21 [Example 91, 2-(4-(6-((4-cyano-2-fluorobenzyl)oxy)-3-fluoropyridin-2-yl)-2-fluorobenzyl)-1-(2-methoxyethyl)-1H-benzo[d]imidazole-6-carboxylic acid]

Continued, compound first:

Structure (SMILES) | EC50 (GLP-1R) [nM] | Predicted Hepatic Clearance (Pred. Cl.) [1] [mL/min/kg]
COCCn1c(Cc2ccc(-c3nc(OCc4ccc(C#N)cc4F)c(F)cc3F)cc2F)nc2ccc(C(=O)O)cc21 [Example 73, 2-(4-(6-((4-cyano-2-fluorobenzyl)oxy)-3,5-difluoropyridin-2-yl)-2-fluorobenzyl)-1-(2-methoxyethyl)-1H-benzo[d]imidazole-6-carboxylic acid] | 6.13 | 4.5
COc1cc(Cl)ccc1COc1cccc(-c2ccc(Cc3nc4ccc(C(=O)O)cc4n3CC3(CC#N)CC3)cc2F)n1 [Example 74, 2-(4-(6-((4-chloro-2-methoxybenzyl)oxy)pyridin-2-yl)-3-fluorobenzyl)-1-((1-(cyanomethyl)cyclopropyl)methyl)-1H-benzo[d]imidazole-6-carboxylic acid] | 0.46 | 13.2
COc1cc(Cl)ccc1COc1nccc(-c2ccc(Cc3nc4ccc(C(=O)O)cc4n3CC3(CF)CC3)cc2F)n1 [Example 75, 2-(4-(2-((4-chloro-2-methoxybenzyl)oxy)pyrimidin-4-yl)-3-fluorobenzyl)-1-((1-(fluoromethyl)cyclopropyl)methyl)-1H-benzo[d]imidazole-6-carboxylic acid] | 0.6 | 13.8
COCCn1c(Cc2c(F)cc(-c3csnc3OCc3ccc(C#N)cc3F)cc2F)nc2ccc(C(=O)O)cc21 [Example 76, 2-(4-(3-((4-cyano-2-fluorobenzyl)oxy)isothiazol-4-yl)-2,6-difluorobenzyl)-1-(2-methoxyethyl)-1H-benzo[d]imidazole-6-carboxylic acid] | 22.3 | 13.4
COCCn1c(Cc2ccc(-c3cc(F)cc(OCc4ccc(C#N)cc4OC)n3)cc2F)nc2ccc(C(=O)O)cc21 [Example 77, 2-(4-(6-((4-cyano-2-methoxybenzyl)oxy)-4-fluoropyridin-2-yl)-2-fluorobenzyl)-1-(2-methoxyethyl)-1H-benzo[d]imidazole-6-carboxylic] | 0.19 | 9.17
N#CCC1(Cn2c(Cc3ccc(-c4ccnc(OCc5ccc(Cl)cc5F)n4)cc3F)nc3ccc(C(=O)O)cc32)CC1 [Example 79, 2-(4-(2-((4-chloro-2-fluorobenzyl)oxy)pyrimidin-4-yl)-2-fluorobenzyl)-1-((1-(cyanomethyl)cyclopropyl)methyl)-1H-benzo[d]imidazole-6-carboxylic acid] | 1.04 | 8.83
COCCn1c(Cc2ccc(-c3conc3OCc3ccc(C#N)cc3F)cc2F)nc2ccc(C(=O)O)cc21 [Example 80, 2-(4-(3-((4-cyano-2-fluorobenzyl)oxy)isoxazol-4-yl)-2-fluorobenzyl)-1-(2-methoxyethyl)-1H-benzo[d]imidazole-6-carboxylic acid] | 2630 | 5.17
COCCn1c(Cc2ccc(-c3nc(OCc4ccc(C#N)cc4F)ccc3C#N)cc2F)nc2ccc(C(=O)O)cc21 [Example 81, 2-(4-(3-cyano-6-((4-cyano-2-fluorobenzyl)oxy)pyridin-2-yl)-2-fluorobenzyl)-1-(2-methoxyethyl)-1H-benzo[d]imidazole-6-carboxylic acid] | 291 | 10.7
COCCn1c(Cc2ccc(-c3ccc(N)c(OCc4ccc(C#N)cc4F)c3)cc2F)nc2ccc(C(=O)O)cc21 [Example 82, 2-((4′-amino-3′-((4-cyano-2-fluorobenzyl)oxy)-3-fluoro-[1,1′-biphenyl]-4-yl)methyl)-1-(2-methoxyethyl)-1H-benzo[d]imidazole-6-carboxylic acid] | 264 | 3.67
COCCn1c(Cc2ccc(-c3ccnc(OCc4ccc(C#N)cc4F)n3)cc2F)nc2ccc(C(=O)O)cc21 [Example 83, 2-(4-(2-((4-cyano-2-fluorobenzyl)oxy)pyrimidin-4-yl)-2-fluorobenzyl)-1-(2-methoxyethyl)-1H-benzo[d]imidazole-6-carboxylic acid] | 29.3 | <1.83
COCCn1c(Cc2ccc(-c3nc(OCc4ccc(C#N)cc4F)cs3)cc2F)nc2ccc(C(=O)O)cc21 [Example 84, 2-(4-(4-((4-cyano-2-fluorobenzyl)oxy)thiazol-2-yl)-2-fluorobenzyl)-1-(2-methoxyethyl)-1H-benzo[d]imidazole-6-carboxylic acid] | 54.3 | 6.33
COCCn1c(Cc2ccc(-c3cc(C#N)cc(OCc4ccc(C#N)cc4F)n3)cc2F)nc2ccc(C(=O)O)cc21 [Example 85, 2-(4-(4-cyano-6-((4-cyano-2-fluorobenzyl)oxy)pyridin-2-yl)-2-fluorobenzyl)-1-(2-methoxyethyl)-1H-benzo[d]imidazole-6-carboxylic acid] | 4.9 | 3.67
